The values below come from ChEMBL document CHEMBL4052759, “Discovery of DS79182026: A potent orally active hepcidin production inhibitor” (Bioorg Med Chem Lett, 2017).

The target in assay [1] is Calcium/calmodulin-dependent protein kinase type II subunit beta (Homo sapiens) (UniProt Q13554). The assay can be described thus: Inhibition of CAMK2 (unknown origin) at 0.078 uM relative to control.
Assay [2] addresses Mitogen-activated protein kinase 1 (Homo sapiens) (UniProt P28482). Nature of the assay: Inhibition of Erk2 (unknown origin) at 0.078 uM relative to control.
In assay [3] the target is Hepatocyte growth factor receptor (Homo sapiens) (UniProt P08581). Nature of the assay: Inhibition of MET (unknown origin) at 0.078 uM relative to control.
The target in assay [4] is Serine/threonine-protein kinase pim-1 (Homo sapiens) (UniProt P11309). Nature of the assay: Inhibition of PIM1 (unknown origin) at 0.49 uM relative to control.
Assay [5] has as its target Protein kinase C epsilon type (Homo sapiens) (UniProt Q02156). The assay can be described thus: Inhibition of PKC-epsilon (unknown origin) at 0.49 uM relative to control.
Assay [6] deals with Serine/threonine-protein kinase pim-3 (Homo sapiens) (UniProt Q86V86). Nature of the assay: Inhibition of PIM3 (unknown origin) at 0.49 uM relative to control.
Assay [7] deals with Glycogen synthase kinase-3 alpha (Homo sapiens) (UniProt P49840). Nature of the assay: Inhibition of GSK3-alpha (unknown origin) at 0.49 uM relative to control.
In assay [8] the target is Receptor-type tyrosine-protein kinase FLT3 (Homo sapiens) (UniProt P36888). The assay can be described thus: Inhibition of FLT3 (unknown origin) at 0.49 uM relative to control.
For assay [9], the target named is Mitogen-activated protein kinase kinase kinase kinase 4 (Homo sapiens) (UniProt O95819). Nature of the assay: Inhibition of HGK (unknown origin) at 0.49 uM relative to control.
For assay [10], the target named is Tyrosine-protein kinase receptor UFO (Homo sapiens) (UniProt P30530). The assay can be described thus: Inhibition of AXL (unknown origin) at 0.49 uM relative to control.
Assay [11] has as its target Casein kinase I isoform gamma-3 (Homo sapiens) (UniProt Q9Y6M4). Nature of the assay: Inhibition of CSNK1G3 (unknown origin) at 0.49 uM relative to control.
For assay [12], the target named is Casein kinase I isoform gamma-1 (Homo sapiens) (UniProt Q9HCP0). The assay can be described thus: Inhibition of CK1-gamma1 (unknown origin) at 0.49 uM relative to control.
Assay [13] has as its target Tyrosine-protein kinase Fes/Fps (Homo sapiens) (UniProt P07332). Nature of the assay: Inhibition of FES (unknown origin) at 0.49 uM relative to control.
Assay [14] addresses Serine/threonine-protein kinase pim-2 (Homo sapiens) (UniProt Q9P1W9). Nature of the assay: Inhibition of PIM2 (unknown origin) at 0.49 uM relative to control.
The target in assay [15] is Insulin-like growth factor 1 receptor (Homo sapiens) (UniProt P08069). The assay can be described thus: Inhibition of IGF1R (unknown origin) at 0.49 uM relative to control.
Assay [16] addresses Hepatocyte growth factor receptor (Homo sapiens) (UniProt P08581). The assay can be described thus: Inhibition of MET (unknown origin) at 0.49 uM relative to control.
Assay [17] concerns the target Cyclin-dependent kinase 5/CDK5 activator 1 (Homo sapiens) (UniProt Q00535+Q15078). Nature of the assay: Inhibition of CDK5/p25 (unknown origin) at 0.49 uM relative to control. It counts as protein-complex assay.
Assay [18] has as its target Protein-tyrosine kinase 2-beta (Homo sapiens) (UniProt Q14289). Nature of the assay: Inhibition of PYK2 (unknown origin) at 0.45 uM relative to control.
Assay [19] addresses MAP/microtubule affinity-regulating kinase 3 (Homo sapiens) (UniProt P27448). The assay can be described thus: Inhibition of c-TAK1 (unknown origin) at 0.45 uM relative to control.
Assay [20] has as its target High affinity nerve growth factor receptor (Homo sapiens) (UniProt P04629). The assay can be described thus: Inhibition of TRKA (unknown origin) at 0.45 uM relative to control.
The target in assay [21] is T1, Aurora kinase A (Homo sapiens) (UniProt O14965).
T1 sequence (whole entry): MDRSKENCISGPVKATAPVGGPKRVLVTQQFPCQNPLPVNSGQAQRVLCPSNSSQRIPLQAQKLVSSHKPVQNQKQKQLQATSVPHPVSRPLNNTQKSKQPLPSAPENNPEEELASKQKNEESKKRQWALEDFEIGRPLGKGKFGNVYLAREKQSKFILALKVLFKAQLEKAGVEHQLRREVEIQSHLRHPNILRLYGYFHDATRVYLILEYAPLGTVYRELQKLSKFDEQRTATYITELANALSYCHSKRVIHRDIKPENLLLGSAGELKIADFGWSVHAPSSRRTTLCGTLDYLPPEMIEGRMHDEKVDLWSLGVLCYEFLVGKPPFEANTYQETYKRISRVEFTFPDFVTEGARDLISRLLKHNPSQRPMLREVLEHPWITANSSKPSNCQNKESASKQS
The assay can be described thus: Inhibition of AurA (unknown origin) at 0.45 uM relative to control.

The target in assay [22] is Serine/threonine-protein kinase 4 (Homo sapiens) (UniProt Q13043). Nature of the assay: Inhibition of MST1 (unknown origin) at 0.45 uM relative to control.
Assay [23] has as its target Cyclin-dependent kinase 3 (Homo sapiens) (UniProt Q00526). Nature of the assay: Inhibition of CDK3 (unknown origin) at 0.45 uM relative to control.
Assay [24] concerns the target Hepatocyte growth factor receptor (Homo sapiens) (UniProt P08581). The assay can be described thus: Inhibition of MET (unknown origin) at 0.45 uM relative to control.
The test system of assay [25] is Proto-oncogene tyrosine-protein kinase receptor Ret (Homo sapiens), P07949 [V804L]. Nature of the assay: Inhibition of Ret V804L mutant (unknown origin) at 0.45 uM relative to control.
For assay [26], the system named is Tyrosine-protein kinase ABL1 (Homo sapiens), P00519 [E255K]. The assay can be described thus: Inhibition of ABL1 E255K mutant (unknown origin) at 0.45 uM relative to control.
Assay [27] concerns the target Ephrin type-B receptor 1 (Homo sapiens) (UniProt P54762). The assay can be described thus: Inhibition of EPHB1 (unknown origin) at 0.45 uM relative to control.
Assay [28] deals with Cyclin-dependent kinase 9 (Homo sapiens) (UniProt P50750). Nature of the assay: Inhibition of CDK9 (unknown origin) at 0.45 uM relative to control.
Assay [29] has as its target PAS domain-containing serine/threonine-protein kinase (Homo sapiens) (UniProt Q96RG2). Nature of the assay: Inhibition of PASK (unknown origin) at 0.45 uM relative to control.

Sequence of Hepatocyte growth factor receptor (Homo sapiens) (P08581 whole entry): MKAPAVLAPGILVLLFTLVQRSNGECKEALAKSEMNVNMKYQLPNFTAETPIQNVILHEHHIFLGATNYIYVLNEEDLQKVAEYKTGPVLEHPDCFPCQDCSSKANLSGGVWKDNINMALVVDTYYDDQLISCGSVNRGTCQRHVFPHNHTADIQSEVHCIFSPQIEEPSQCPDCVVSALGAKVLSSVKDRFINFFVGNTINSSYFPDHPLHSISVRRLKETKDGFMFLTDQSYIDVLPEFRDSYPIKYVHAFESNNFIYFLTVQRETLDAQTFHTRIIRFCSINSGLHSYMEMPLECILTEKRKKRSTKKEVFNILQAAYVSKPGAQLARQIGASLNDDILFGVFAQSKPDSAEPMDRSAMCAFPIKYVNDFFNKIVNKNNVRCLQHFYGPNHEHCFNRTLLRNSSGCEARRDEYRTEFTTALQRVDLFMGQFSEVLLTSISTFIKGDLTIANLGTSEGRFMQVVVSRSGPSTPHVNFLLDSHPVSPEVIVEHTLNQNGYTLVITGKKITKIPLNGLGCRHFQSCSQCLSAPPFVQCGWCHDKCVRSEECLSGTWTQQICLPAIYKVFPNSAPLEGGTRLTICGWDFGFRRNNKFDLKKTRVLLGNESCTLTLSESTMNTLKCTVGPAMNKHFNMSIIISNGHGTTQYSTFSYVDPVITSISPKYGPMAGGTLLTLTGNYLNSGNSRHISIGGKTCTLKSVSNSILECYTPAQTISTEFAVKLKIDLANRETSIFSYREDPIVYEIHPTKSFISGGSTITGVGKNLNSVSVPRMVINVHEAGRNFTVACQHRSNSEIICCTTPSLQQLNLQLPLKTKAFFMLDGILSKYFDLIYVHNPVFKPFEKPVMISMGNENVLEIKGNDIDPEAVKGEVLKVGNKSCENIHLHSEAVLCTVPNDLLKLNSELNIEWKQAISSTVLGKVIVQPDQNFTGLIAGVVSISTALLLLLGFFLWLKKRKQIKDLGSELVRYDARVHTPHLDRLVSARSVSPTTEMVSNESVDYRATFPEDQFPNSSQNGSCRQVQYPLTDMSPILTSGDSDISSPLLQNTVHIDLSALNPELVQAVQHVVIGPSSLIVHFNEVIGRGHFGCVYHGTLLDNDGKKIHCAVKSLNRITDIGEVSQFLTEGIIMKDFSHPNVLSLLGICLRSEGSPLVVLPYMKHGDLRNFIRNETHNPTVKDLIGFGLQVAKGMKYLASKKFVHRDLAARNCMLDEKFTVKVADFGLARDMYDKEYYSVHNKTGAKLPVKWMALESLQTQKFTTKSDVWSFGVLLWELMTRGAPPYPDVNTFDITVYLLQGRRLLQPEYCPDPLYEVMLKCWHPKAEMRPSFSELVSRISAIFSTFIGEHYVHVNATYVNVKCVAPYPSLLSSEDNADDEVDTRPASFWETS
Sequence of Mitogen-activated protein kinase 1 (Homo sapiens) (P28482 whole entry): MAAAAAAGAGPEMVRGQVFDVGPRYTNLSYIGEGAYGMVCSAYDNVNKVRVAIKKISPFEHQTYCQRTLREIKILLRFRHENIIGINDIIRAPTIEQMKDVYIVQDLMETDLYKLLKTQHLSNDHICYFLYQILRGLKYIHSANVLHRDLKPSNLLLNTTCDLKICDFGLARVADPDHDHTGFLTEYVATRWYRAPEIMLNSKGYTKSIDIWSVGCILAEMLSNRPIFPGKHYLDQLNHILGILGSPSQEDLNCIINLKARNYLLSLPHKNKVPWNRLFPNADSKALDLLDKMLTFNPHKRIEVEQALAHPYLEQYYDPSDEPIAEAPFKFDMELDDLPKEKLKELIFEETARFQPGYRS
Sequence of Mitogen-activated protein kinase kinase kinase kinase 4 (Homo sapiens) (O95819 2-1239 limits assumed): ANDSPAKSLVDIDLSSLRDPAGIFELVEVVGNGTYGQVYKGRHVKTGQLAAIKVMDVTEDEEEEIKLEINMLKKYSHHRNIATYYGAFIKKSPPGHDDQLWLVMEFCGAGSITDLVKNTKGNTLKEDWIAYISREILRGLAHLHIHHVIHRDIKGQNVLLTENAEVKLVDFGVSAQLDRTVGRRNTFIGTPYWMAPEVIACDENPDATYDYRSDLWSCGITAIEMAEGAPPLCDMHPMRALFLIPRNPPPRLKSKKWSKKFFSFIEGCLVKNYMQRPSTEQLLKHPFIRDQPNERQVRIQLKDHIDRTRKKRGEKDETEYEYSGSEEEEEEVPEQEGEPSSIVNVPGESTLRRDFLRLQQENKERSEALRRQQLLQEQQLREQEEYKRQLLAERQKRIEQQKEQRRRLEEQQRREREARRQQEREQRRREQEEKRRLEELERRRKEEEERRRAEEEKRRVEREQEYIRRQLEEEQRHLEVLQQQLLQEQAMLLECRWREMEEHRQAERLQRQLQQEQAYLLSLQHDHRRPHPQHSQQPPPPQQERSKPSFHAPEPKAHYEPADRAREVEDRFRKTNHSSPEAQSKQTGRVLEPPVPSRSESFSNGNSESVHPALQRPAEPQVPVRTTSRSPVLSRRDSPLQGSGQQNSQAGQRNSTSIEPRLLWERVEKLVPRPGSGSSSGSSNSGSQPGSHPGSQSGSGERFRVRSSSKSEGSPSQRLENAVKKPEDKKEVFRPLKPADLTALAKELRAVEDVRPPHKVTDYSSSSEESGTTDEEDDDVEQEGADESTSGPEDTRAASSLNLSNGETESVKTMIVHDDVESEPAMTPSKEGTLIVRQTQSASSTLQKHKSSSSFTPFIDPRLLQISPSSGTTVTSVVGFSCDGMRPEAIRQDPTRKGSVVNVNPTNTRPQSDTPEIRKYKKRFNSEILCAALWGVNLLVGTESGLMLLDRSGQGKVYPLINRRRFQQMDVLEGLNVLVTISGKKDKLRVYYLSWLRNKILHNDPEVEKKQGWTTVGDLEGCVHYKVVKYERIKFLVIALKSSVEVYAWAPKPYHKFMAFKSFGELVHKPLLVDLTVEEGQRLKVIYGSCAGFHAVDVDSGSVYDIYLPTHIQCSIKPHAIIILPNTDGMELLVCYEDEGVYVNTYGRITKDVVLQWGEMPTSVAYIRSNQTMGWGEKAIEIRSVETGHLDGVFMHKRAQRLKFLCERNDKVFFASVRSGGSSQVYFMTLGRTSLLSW
Sequence of Tyrosine-protein kinase ABL1 (Homo sapiens), P00519 [E255K] (P00519 whole entry E255K): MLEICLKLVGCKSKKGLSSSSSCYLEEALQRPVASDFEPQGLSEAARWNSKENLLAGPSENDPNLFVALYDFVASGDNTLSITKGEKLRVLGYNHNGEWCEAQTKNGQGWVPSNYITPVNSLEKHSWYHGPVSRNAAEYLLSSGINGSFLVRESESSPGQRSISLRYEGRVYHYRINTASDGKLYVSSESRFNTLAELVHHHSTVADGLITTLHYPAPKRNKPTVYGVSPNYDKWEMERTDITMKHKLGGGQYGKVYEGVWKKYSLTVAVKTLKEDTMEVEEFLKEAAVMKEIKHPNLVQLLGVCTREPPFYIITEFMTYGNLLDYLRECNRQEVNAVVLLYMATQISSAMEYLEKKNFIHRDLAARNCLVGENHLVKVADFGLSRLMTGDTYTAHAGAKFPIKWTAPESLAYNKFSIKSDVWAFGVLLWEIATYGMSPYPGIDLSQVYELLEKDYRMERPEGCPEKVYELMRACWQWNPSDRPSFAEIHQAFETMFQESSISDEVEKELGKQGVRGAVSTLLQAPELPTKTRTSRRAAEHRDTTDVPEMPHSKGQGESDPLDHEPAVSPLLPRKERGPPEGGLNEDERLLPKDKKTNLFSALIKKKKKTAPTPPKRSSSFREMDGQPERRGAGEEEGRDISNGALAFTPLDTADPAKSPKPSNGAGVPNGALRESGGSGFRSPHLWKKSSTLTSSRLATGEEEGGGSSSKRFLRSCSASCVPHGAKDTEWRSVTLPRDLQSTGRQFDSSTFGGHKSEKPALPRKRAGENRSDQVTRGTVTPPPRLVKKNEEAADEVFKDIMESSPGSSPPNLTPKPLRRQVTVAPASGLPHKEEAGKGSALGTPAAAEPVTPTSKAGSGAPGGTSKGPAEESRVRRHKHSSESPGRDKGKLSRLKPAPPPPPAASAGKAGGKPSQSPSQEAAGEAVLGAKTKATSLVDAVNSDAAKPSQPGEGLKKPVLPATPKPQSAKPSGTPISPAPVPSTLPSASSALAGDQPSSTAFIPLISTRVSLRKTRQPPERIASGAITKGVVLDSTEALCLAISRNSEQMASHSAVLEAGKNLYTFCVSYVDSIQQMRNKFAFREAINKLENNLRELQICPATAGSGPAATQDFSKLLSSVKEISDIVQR
Sequence of Casein kinase I isoform gamma-1 (Homo sapiens) (Q9HCP0 whole entry, looked up, canonical isoform): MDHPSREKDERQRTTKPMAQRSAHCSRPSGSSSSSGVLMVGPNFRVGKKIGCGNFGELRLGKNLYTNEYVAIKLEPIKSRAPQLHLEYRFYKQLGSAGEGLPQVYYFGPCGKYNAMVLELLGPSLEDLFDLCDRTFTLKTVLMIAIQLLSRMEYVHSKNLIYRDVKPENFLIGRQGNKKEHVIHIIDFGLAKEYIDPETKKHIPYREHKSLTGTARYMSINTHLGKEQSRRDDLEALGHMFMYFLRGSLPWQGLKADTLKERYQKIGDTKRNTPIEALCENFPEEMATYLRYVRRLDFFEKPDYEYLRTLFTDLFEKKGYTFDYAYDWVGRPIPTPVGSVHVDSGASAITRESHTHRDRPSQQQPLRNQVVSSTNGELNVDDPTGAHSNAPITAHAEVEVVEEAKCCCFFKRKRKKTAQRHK
Sequence of Cyclin-dependent kinase 3 (Homo sapiens) (Q00526 whole entry, looked up): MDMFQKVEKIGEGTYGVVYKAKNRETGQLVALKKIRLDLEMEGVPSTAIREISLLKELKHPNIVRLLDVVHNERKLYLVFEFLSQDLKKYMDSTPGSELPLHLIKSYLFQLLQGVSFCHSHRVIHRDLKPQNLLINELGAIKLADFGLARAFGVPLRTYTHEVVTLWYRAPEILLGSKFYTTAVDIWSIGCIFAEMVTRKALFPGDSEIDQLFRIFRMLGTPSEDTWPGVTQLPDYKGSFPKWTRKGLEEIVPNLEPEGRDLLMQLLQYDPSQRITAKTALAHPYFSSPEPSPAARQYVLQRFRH

By inhibition is commonly meant the relative decrease from the control value, in per cent. In the case of `COC(=O)Nc1noc2cc(-c3c(-c4ccccn4)n[nH]c3C)ccc12`, the inhibition in assay [1] was 3.7%; in assay [2], -0.7%; in [3], 1%.
As to `Cc1[nH]nc(C2CC2)c1-c1ccc2c(NC(=O)C3CC3)noc2c1`, the inhibition in assay [4] is 9%; in assay [5], 4.7%; in assay [6] it was -4%; in [7], 2%; in assay [8], 3.7%; in assay [9], 4%. Also, the inhibition in assay [10] is -0.3%; in assay [11] it was 2.3%; in assay [12], 0.7%; in assay [13], -5.3%; in assay [14], -6%; in assay [15] it was 1.3%. The inhibition in assay [16] came to 7.3%; in assay [17], 4.3%.
Turning to `Cc1n[nH]c(C)c1-c1ccc2c(NC(=O)c3ccc(N4CCN(C)CC4)cc3)n[nH]c2c1`, the inhibition in [18] is 4.7%; in [19] it was 15%; in assay [20], 93.7%; in assay [21], 7%; in assay [22] it was 33.3%; in assay [23], 7.3%. Further, the inhibition in [24] is 5.7%; in [25], 21.3%; in [26] it was 72.7%; in assay [27] it was 6.7%; in [28] it was 9.3%; in assay [29], -2%.
